This passage reports Km results from publication PMC9570413, “A New Phospholipase D from Moritella sp. JT01: Biochemical Characterization, Crystallization and Application in the Synthesis of Phosphatidic Acid” (International Journal of Molecular Sciences, 2022).

For the experiment, the target named is T1, MsPLD (phospholipase D from Moritella sp. JT01) (Moritella sp. JT01, UniProt A0A137SLD1).
T1 construct: gene AKG98_3441; precursor 578 residues; C-terminal 6xHis (pET-21a); E. coli SHuffle T7; about 62 kDa
T1 sequence (A0A137SLD1 29-578): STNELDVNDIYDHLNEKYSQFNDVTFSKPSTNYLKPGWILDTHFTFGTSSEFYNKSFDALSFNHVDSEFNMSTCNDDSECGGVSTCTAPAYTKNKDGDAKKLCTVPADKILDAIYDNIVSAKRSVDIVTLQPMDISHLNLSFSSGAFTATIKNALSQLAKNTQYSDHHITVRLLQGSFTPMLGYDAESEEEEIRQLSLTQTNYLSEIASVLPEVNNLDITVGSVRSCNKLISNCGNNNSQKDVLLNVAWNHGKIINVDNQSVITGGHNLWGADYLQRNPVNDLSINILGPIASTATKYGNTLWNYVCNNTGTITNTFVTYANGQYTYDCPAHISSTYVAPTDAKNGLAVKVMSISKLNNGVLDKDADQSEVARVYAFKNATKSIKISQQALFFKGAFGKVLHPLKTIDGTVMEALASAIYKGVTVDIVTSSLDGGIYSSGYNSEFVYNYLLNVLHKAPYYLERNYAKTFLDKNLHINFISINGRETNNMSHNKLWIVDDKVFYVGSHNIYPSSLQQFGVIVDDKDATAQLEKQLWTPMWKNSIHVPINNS
The experiment can be described thus: enzyme-linked colorimetry (choline oxidase/peroxidase), Michaelis-Menten. Format: biochemical. The note with it: 0.1 M Tris-HCl pH 8.0, 35 °C, SDS and Triton X-100 in assay mixture; 0.5-8.0 mM PC; natural soybean PC, acyl chains not defined (class of species, no single structure). Here is the method: enzyme-linked colorimetry (choline oxidase/peroxidase), Michaelis-Menten on MsPLD (phospholipase D from Moritella sp. JT01) | the kinetic parameters of MsPLD to soy PC were determined

In general, Km refers to the concentration of substrate that gives half-maximal velocity. As for L-α-phosphatidylcholine from soybean, the Km amounted to 3.44 ± 0.81 mM.
